How the values were obtained:
[1] = Acid neutralization test of tablets, time for pH to rise to 7 (Example 1); type: physicochemical; conditions: 840 mg tablet, basket 75 rpm, 50 ml SGF + 50 ml water
Protocol: 840 mg of each of magnesium hydroxide, tromethamine, and carbicarb were separately compressed into tablets utilizing a carver press having a 13 mm die at a 1 second dwell time and 500 pounds of compression force. Also, a first mixture containing 420 mg of magnesium hydroxide and 420 mg of tromethamine was also compressed into tablet-form using the method described above. Additionally, a second mixture containing 420 mg of magnesium hydroxide and 420 mg of carbicarb was compressed into tablet-form as previously described.
Each of the five different preparations was tested separately in the following manner. Tablets of each preparation were placed in a USP dissolution apparatus basket which was then attached to a spindle. The stirring component of the apparatus was set to rotate the basket at a speed of approximately 75 rpm. The loaded, rotating basket was then immersed into a beaker containing 50 ml of SGF and 50 ml of distilled de-ionized water. The pH of the medium in the beaker was monitored continuously throughout the test procedure utilizing a micro pH electrode.

[2] = Degradation of lansoprazole as a function of pH at 37 degrees C.; type: physicochemical; conditions: for half-life: buffer
Text: For example, lansoprazole is a substituted benzimidaole that is an acid labile pharmaceutical compound that inhibits gastric acid secretions. The affect of gastric pH on the degradation of an acid-labile drug such as lansoprazole is conveyed in Table 1. The data shown in Table 1 was collected at 37 degrees C., wherein “K” reflects the first order degradation constant.

Row | half-life ([2]; pH 5, 37 degrees C.) | half-life ([2]; pH 6, 37 degrees C.) | half-life ([2]; pH 7, 37 degrees C.) | half-life ([2]; pH 8, 37 degrees C.) | half-life ([2]; pH 9, 37 degrees C.) | % Drug Remaining After 30 Minutes ([2]; pH 5, 37 degrees C.) | K (first order degradation constant) ([2]; pH 5, 37 degrees C.) | % Drug Remaining After 30 Minutes ([2]; pH 6, 37 degrees C.) | K (first order degradation constant) ([2]; pH 6, 37 degrees C.) | % Drug Remaining After 30 Minutes ([2]; pH 7, 37 degrees C.) | K (first order degradation constant) ([2]; pH 7, 37 degrees C.) | % Drug Remaining After 30 Minutes ([2]; pH 8, 37 degrees C.) | K (first order degradation constant) ([2]; pH 8, 37 degrees C.) | % Drug Remaining After 30 Minutes ([2]; pH 9, 37 degrees C.) | K (first order degradation constant) ([2]; pH 9, 37 degrees C.) | SMILES | Time to Raise the pH of SGF to 7 at 37 degrees C. [1]
1 | – | – | – | – | – | – | – | – | – | – | – | – | – | – | – | [Mg+2].[OH-].[OH-] [Magnesium hydroxide] | 565 seconds
2 | 0.52 h | 3.4 h | 18 h | 37 h | 78 h | 51.37% | 1.33 hr.^−1 | 90.30% | 0.20 hr.^−1 | 98.10% | 0.04 hr.^−1 | 99.10% | 0.02 hr.^−1 | 99.57% | 0.01 hr.^−1 | Cc1c(OCC(F)(F)F)ccnc1C[S+]([O-])c1nc2ccccc2[nH]1 (centres unmarked) [lansoprazole] | –
3 | – | – | – | – | – | – | – | – | – | – | – | – | – | – | – | NC(CO)(CO)CO [Tromethamine (TRIS), Tromethamine] | 75 seconds
